Here are results for three compounds from patent US20220071999A1, “DESIGN AND DISCOVERY OF BD OXIDASE INHIBITORS FOR THE TREATMENT OF MYCOBACTERIAL DISEASES” (UNIVERSITY OF NOTRE DAME DU LAC, priority 2018, published 2022).

Where two headings read alike, the source gives them in different places.

Test [1] concerns Mycobacterium abscessus clinical specimens. Nature of the test: checkerboard assay (MIC) against Mycobacterium abscessus clinical specimens. The format is cell-based. The conditions noted are these: for MIC: Mycobacteroides abscessus; for Activity (effect on MICs in combination): ND-11992 with ND-11598. As for the experimental part: ND-11992 (bd oxidase inhibitor) and ND-11598 (cyt-bc1:aa3 inhibitor) were evaluated against various Mycobacterium abscessus clinical specimens in a checkerboard assay. Additive effects on MICs were observed when both drugs were used in combination. MIC values are given in μg/mL.

Test [2] concerns Nontuberculous mycobacteria (NTM) clinical isolates of the Mycobacterium avium-intracellulare complex (MAIC). Nature of the test: checkerboard assay (MIC) against NTM clinical isolates of the MAIC. In kind it is cell-based. The conditions noted are these: for MIC: Mycobacterium avium-intracellulare. As to the method: ND-11992 (bd oxidase inhibitor) and ND-11598 (cyt-bc1:aa3 inhibitor) were evaluated against various Nontuberculous mycobacteria (NTM) clinical isolates of the Mycobacterium avium-intracellulare complex (MAIC) in a checkerboard assay. Additive and synergistic effects on MICs were observed when both drugs were used in combination. MIC values are given in μg/mL.

Another test concerns M. tuberculosis. Nature of the test: acute murine model of M. tuberculosis infection, alone and in combination. The format is in vivo. As to the method: ND-11992 (bd oxidase inhibitor) and Q203 (cyt-bc1:aa3 inhibitor) were evaluated in an acute murine model of M. tuberculosis infection alone and in combination. ND-11992 (10 mg/kg PO)+Q203 (5 mg/kg PO) results in bactericidal efficacy with 1.5 log 10 CFU drop in bacteria when dosed orally for 5 days. […] Both compounds were bacteriostatic when dosed alone as single agents.

`Cc1ccn2c(C(=O)NCc3ccc(N4CCCN(c5ccc(C(F)(F)F)cc5)CC4)c(F)c3)c(C)nc2c1` [ND-11598]: the MIC is greater than 10 µg/mL in test [1] (M. abscessus Clinical Isolate #8, read-out: MIC ND-11598 alone); 5 µg/mL in test [1] (M. abscessus Clinical Isolate #8, with 5 μg/ml ND 11992, read-out: ND-11598 MIC with 5 μg/ml ND 11992); greater than 10 µg/mL in test [1] (M. abscessus Clinical Isolate #38, read-out: MIC ND-11598 alone); 5 µg/mL in test [1] (M. abscessus Clinical Isolate #38, with 5 μg/ml ND 11992, read-out: ND-11598 MIC with 5 μg/ml ND 11992); greater than 10 µg/mL in test [1] (M. abscessus Clinical Isolate #50, read-out: MIC ND-11598 alone); 10 µg/mL in test [1] (M. abscessus Clinical Isolate #50, with 5 μg/ml ND 11992, read-out: ND-11598 MIC with 5 μg/ml ND 11992). The MIC in test [2] (NTM Clinical Isolate #25, read-out: MIC ND-11598 alone) was 0.25 µg/mL; in test [2] (NTM Clinical Isolate #25, with 0.5 μg/ml ND 11992, read-out: ND-11598 MIC with 0.5 μg/ml ND 11992), 0.0156 µg/mL; in test [2] (NTM Clinical Isolate #50, read-out: MIC ND-11598 alone), 1 µg/mL; in test [2] (NTM Clinical Isolate #50, with 0.5 μg/ml ND 11992, read-out: ND-11598 MIC with 0.5 μg/ml ND 11992) it was 0.0156 µg/mL; in test [2] (NTM MAIC A5 (serotype 4), read-out: MIC ND-11598 alone), 1 µg/mL; in test [2] (NTM MAIC A5 (serotype 4), with 0.5 μg/ml ND 11992, read-out: ND-11598 MIC with 0.5 μg/ml ND 11992), 0.25 µg/mL. In addition, the MIC is greater than 10 µg/mL in test [2] (NTM MAIC Serovar #4, read-out: MIC ND-11598 alone); 0.25 µg/mL in test [2] (NTM MAIC Serovar #4, with 0.5 μg/ml ND 11992, read-out: ND-11598 MIC with 0.5 μg/ml ND 11992); greater than 10 µg/mL in test [2] (NTM MAIC Serovar #5, read-out: MIC ND-11598 alone); 1 µg/mL in test [2] (NTM MAIC Serovar #5, with 0.5 μg/ml ND 11992, read-out: ND-11598 MIC with 0.5 μg/ml ND 11992); 0.0156 µg/mL in test [2] (NTM MAIC Serovar #6, read-out: MIC ND-11598 alone); 0.0078 µg/mL in test [2] (NTM MAIC Serovar #6, with ND-11992 at 1 (column head: 0.5 μg/ml), read-out: ND-11598 MIC with ND 11992). For the same compound, the MIC in test [2] (NTM MAIC Serovar #10, read-out: MIC ND-11598 alone) stood at 10 µg/mL; in test [2] (NTM MAIC Serovar #10, with 0.5 μg/ml ND 11992, read-out: ND-11598 MIC with 0.5 μg/ml ND 11992), 0.25 µg/mL.
`FC(F)(F)c1ccc(Oc2ccc(Nc3ncnc4ccccc34)cc2)cc1` [ND-11992]: the CFU drop result with M. tuberculosis (10 mg/kg of ND-11992 alone) is recorded as “no CFU drop”. Further, the “type of efficacy (bactericidal/bacteriostatic)” value is “bactericidal” with M. tuberculosis (combination ND-11992 10 mg/kg PO + Q203 5 mg/kg PO, 5 days) and “bacteriostatic” with M. tuberculosis (dosed alone as single agents). Moreover, in the test with M. tuberculosis (combination ND-11992 10 mg/kg PO + Q203 5 mg/kg PO, dosed orally for 5 days), the “CFU drop in bacteria” value stood at 1.5 log 10 CFU. The MIC in test [1] (M. abscessus Clinical Isolate #8, with 5 μg/ml of ND-11598, read-out: ND-11992 MIC with 5 μg/ml of ND-11598) turned out to be 5 µg/mL; in test [1] (M. abscessus Clinical Isolate #38, with 5 μg/ml of ND-11598, read-out: ND-11992 MIC with 5 μg/ml of ND-11598), 5 µg/mL; in test [1] (M. abscessus Clinical Isolate #50, with 5 μg/ml of ND-11598, read-out: ND-11992 MIC with 5 μg/ml of ND-11598), 10 µg/mL; in test [2] (NTM Clinical Isolate #25, ND-11598 was only 0.125 μg/ml (column head: 0.5 μg/ml), read-out: ND-11992 MIC with ND-11598), 0.0625 µg/mL; in test [2] (NTM Clinical Isolate #50, with 0.5 μg/ml of ND-11598, read-out: ND-11992 MIC with 0.5 μg/ml of ND-11598) it was 0.125 µg/mL; in test [2] (NTM MAIC A5 (serotype 4), with 0.5 μg/ml of ND-11598, read-out: ND-11992 MIC with 0.5 μg/ml of ND-11598) it was 0.25 µg/mL. Also, the MIC is 0.5 µg/mL in test [2] (NTM MAIC Serovar #4, with 0.5 μg/ml of ND-11598, read-out: ND-11992 MIC with 0.5 μg/ml of ND-11598); 1 µg/mL in test [2] (NTM MAIC Serovar #5, with 0.5 μg/ml of ND-11598, read-out: ND-11992 MIC with 0.5 μg/ml of ND-11598); 0.5 µg/mL in test [2] (NTM MAIC Serovar #10, with 0.5 μg/ml of ND-11598, read-out: ND-11992 MIC with 0.5 μg/ml of ND-11598). The “Activity (effect on MICs in combination)” value in test [1] (M. abscessus Clinical Isolate #8) is “Additive”; in test [1] (M. abscessus Clinical Isolate #38), “Additive”; in test [1] (M. abscessus Clinical Isolate #50), “Additive”; in test [2] (ND-11992 with ND-11598, NTM MAIC Serovar #6), “Additive”.
Take `CCc1nc2ccc(Cl)cn2c1C(=O)NCc1ccc(N2CCC(c3ccc(OC(F)(F)F)cc3)CC2)cc1` [Q203]: the “type of efficacy (bactericidal/bacteriostatic)” value in the test on M. tuberculosis (dosed alone as single agents) is recorded as “bacteriostatic”.
